One data set has as its system HL-60 leukemia cells. As to the kind of experiment: Cytotoxicity assay: proliferation of HL-60 cells by 3H-thymidine uptake. The note with it: Homo sapiens, doxorubicin positive control at 1 μM on the plate of the test compound, read-out: % Inhibition of DOX (1 μM). In kind it is cell-based.
The next data set concerns mice. The note with it: intraperitoneal administration (route stated for arsenic trioxide); cited from earlier work.

The inhibition is the relative decrease from the control value, in per cent. For the compound `COc1cccc2c1C(=O)c1c(O)c3c(c(O)c1C2=O)C[C@@](O)(C(=O)CO)C[C@@H]3O[C@H]1C[C@H](N)[C@H](O)[C@H](C)O1` [DOX, doxorubicin], the inhibition at 1 µM in the data set on HL-60 leukemia cells is 100%.

arsenic trioxide: the “LD50 (a dose at which 50% of animals die due to acute toxicity)” value with mice is reported as 10 mg/kg.

These data come from US8222440B2, “Compounds and methods for the treatment of cancer” (The Texas A&M University System, priority 2006, dated 2012).
